Assay results as given in the NIST ThermoML archive (doi:10.1021/je800110r).

Settings: 333.15 K, Liquid, Vibrating tube method

CCCCCCCCCC [decane]
Settings	mass density [kg/m3]
10425 kPa	708.9
10455 kPa	709
10482 kPa	709
10506 kPa	709.1
10526 kPa	709
10553 kPa	709.1
10580 kPa	709
10603 kPa	709.1
10630 kPa	709.2
10657 kPa	709
10677 kPa	709.3
10704 kPa	709.2
10743 kPa	709.3
10772 kPa	709.2
10799 kPa	709.4
10828 kPa	709.3
10856 kPa	709.3
10884 kPa	709.3
10917 kPa	709.4
10950 kPa	709.4
10976 kPa	709.4
11009 kPa	709.5
11035 kPa	709.6
11073 kPa	709.6
11102 kPa	709.7
11132 kPa	709.6
11162 kPa	709.7
11188 kPa	709.5
11219 kPa	709.7
11250 kPa	709.7
11277 kPa	709.8
11304 kPa	709.8
11330 kPa	709.7
11357 kPa	709.7
11398 kPa	709.8
11428 kPa	709.8
11460 kPa	709.8
11492 kPa	709.9
11533 kPa	709.9
11566 kPa	710
11596 kPa	710
11635 kPa	710
11662 kPa	710
11697 kPa	710.1
11733 kPa	710.1
11760 kPa	710.1
11796 kPa	710.2
11827 kPa	710.2
11859 kPa	710.2
11895 kPa	710.2
11932 kPa	710.4
11974 kPa	710.4
11998 kPa	710.3
12044 kPa	710.4
12087 kPa	710.5
12115 kPa	710.6
12144 kPa	710.4
12187 kPa	710.4
12857 kPa	711
12881 kPa	711.2
12919 kPa	711.2
12952 kPa	711.1
12983 kPa	711.3
13020 kPa	711.3
13053 kPa	711.2
13085 kPa	711.3
13153 kPa	711.4
13172 kPa	711.5
13195 kPa	711.4
13213 kPa	711.4
13239 kPa	711.4
13261 kPa	711.4
13279 kPa	711.4
13300 kPa	711.5
13315 kPa	711.4
13337 kPa	711.4
13353 kPa	711.6
13598 kPa	711.7
13618 kPa	711.8
13633 kPa	711.7
13652 kPa	711.8
13667 kPa	711.7
13682 kPa	711.8
13695 kPa	711.7
13715 kPa	711.7
13728 kPa	711.9
13740 kPa	711.9
13756 kPa	711.8
13775 kPa	711.9
13790 kPa	711.9
13804 kPa	712
13817 kPa	711.9
13834 kPa	712
13854 kPa	712
13867 kPa	711.9
13887 kPa	712
13913 kPa	712.1
13929 kPa	712.1
13951 kPa	712
13965 kPa	712.1
13981 kPa	712.1
13994 kPa	712
14010 kPa	712.1
14027 kPa	712.1
14048 kPa	712.3
14066 kPa	712.2
14089 kPa	712.2
14106 kPa	712.1
14128 kPa	712.2
14140 kPa	712.1
14154 kPa	712.2
14172 kPa	712.3
14186 kPa	712.3
14205 kPa	712.3
14217 kPa	712.3
14240 kPa	712.4
14902 kPa	712.8
14923 kPa	712.9
14943 kPa	713
14961 kPa	713.1
15005 kPa	712.9
15028 kPa	713
15046 kPa	712.9
15070 kPa	713
15086 kPa	713
15104 kPa	712.9
15126 kPa	713
15147 kPa	713
15166 kPa	713
15205 kPa	713.2
15267 kPa	713.2
15394 kPa	713.3
15411 kPa	713.3
15435 kPa	713.4
15452 kPa	713.4
15479 kPa	713.3
15499 kPa	713.4
15536 kPa	713.4
15558 kPa	713.4
15603 kPa	713.4
15623 kPa	713.5
15641 kPa	713.5
15666 kPa	713.6
15680 kPa	713.5
15703 kPa	713.5
15721 kPa	713.6
15741 kPa	713.6
15761 kPa	713.5
15784 kPa	713.6
15804 kPa	713.6
15827 kPa	713.6
15859 kPa	713.6
15877 kPa	713.7
15898 kPa	713.6
15919 kPa	713.8
15945 kPa	713.8
15972 kPa	713.7
15992 kPa	713.8
16013 kPa	713.7
16043 kPa	713.8
16061 kPa	713.9
16084 kPa	713.9
16108 kPa	713.9
16129 kPa	713.9
16147 kPa	713.9
16163 kPa	714.1
16188 kPa	714
16212 kPa	713.9
16236 kPa	714
16258 kPa	714.1
16288 kPa	714.1
16313 kPa	714
16336 kPa	714
16354 kPa	714
16383 kPa	714.1
16417 kPa	714
16436 kPa	714.1
16455 kPa	714.1
16484 kPa	714.1
16506 kPa	714.2
16535 kPa	714.2
16557 kPa	714.2
16580 kPa	714.2
16599 kPa	714.4
16628 kPa	714.2
16648 kPa	714.2
16681 kPa	714.3
16700 kPa	714.4
16719 kPa	714.3
16749 kPa	714.4
16769 kPa	714.4
16806 kPa	714.4
16832 kPa	714.3
16858 kPa	714.5
16882 kPa	714.4
16913 kPa	714.4
16933 kPa	714.6
16963 kPa	714.6
16983 kPa	714.5
17007 kPa	714.6
17030 kPa	714.6
17054 kPa	714.6
17071 kPa	714.7
17105 kPa	714.6
17136 kPa	714.7
17168 kPa	714.7
17193 kPa	714.8
17217 kPa	714.8
17252 kPa	714.9
17276 kPa	714.8
17301 kPa	714.8
17329 kPa	714.9
17357 kPa	714.8
17382 kPa	714.9
17407 kPa	715
17429 kPa	714.9
17458 kPa	715
17484 kPa	715
17509 kPa	714.9
17542 kPa	715.1
17564 kPa	715
17593 kPa	715.1
17626 kPa	715.1
17656 kPa	715.1
17689 kPa	715.2
17708 kPa	715.2
17727 kPa	715.2
17754 kPa	715.3
17777 kPa	715.2
17799 kPa	715.3
17827 kPa	715.3
17857 kPa	715.2
17891 kPa	715.4
17925 kPa	715.4
17948 kPa	715.3
17975 kPa	715.4
18002 kPa	715.5
18025 kPa	715.4
18053 kPa	715.5
18089 kPa	715.5
18117 kPa	715.5
18145 kPa	715.5
18164 kPa	715.6
18188 kPa	715.6
18223 kPa	715.6
18263 kPa	715.6
18286 kPa	715.6
18322 kPa	715.8
18354 kPa	715.7
18382 kPa	715.7
18419 kPa	715.7
18443 kPa	715.8
18476 kPa	715.8
18500 kPa	715.7
18540 kPa	715.9
18566 kPa	716
18594 kPa	716
18623 kPa	716
18664 kPa	716
18744 kPa	716
18765 kPa	716
18791 kPa	716.1
18859 kPa	716.1
18889 kPa	716.1
18927 kPa	716.2
18953 kPa	716.2
18982 kPa	716.3
19017 kPa	716.2
19048 kPa	716.3
19083 kPa	716.3
19113 kPa	716.3
19140 kPa	716.3
19180 kPa	716.3
19216 kPa	716.4
